In patent US20060199770A1, “Functionalized carbon nanotubes, a process for preparing the same and their use in medicinal chemistry” (priority 2003, published 2006):
Where no end group is shown, it is not given here.

Experiments:
[1] = test system: mAb 21×27; format: binding, mice
[2] = test system: polyclonal mouse anti-FMDV peptide serum; format: binding
[3] = test system: BALB/c mice; details: mouse, in vivo; cited from earlier work

## Ac-CGSGVRGDFGSLAPRVARQL [free FMDV peptide]
[1]
  recognition by monoclonal antibodies (ELISA, FIG. 5B): recognized equally well
[2]
  recognition by polyclonal antibodies (ELISA, FIG. 5A): recognized equally well

## Ac-GSGVRGDFGSLAPRVARQL [FMDV 141-159 peptide]
[3]
  immunogenicity when injected alone with an adjuvant: not immunogenic
